From US20200331855A1, “CO-CRYSTAL OF TOCOPHEROL AND PROLINE AND PREPARATION METHOD THEREOF” (priority 2017, published 2020)
One block for each compound: values may come before it.

Experiments:
[1] = Accelerated test stability (40° C./75% relative humidity), D-α-tocopherol vs co-crystal; format: physicochemical
Procedure: (§1) The content was determined by HPLC, and the content was calculated by the external standard method.

[2] = Long-term test stability (25° C./60% relative humidity); format: physicochemical; conditions: Month 0, initial content set at 100%
Procedure: as §1

[3] = High temperature test (60° C.), content by HPLC and appearance; format: physicochemical
Procedure: as §1

[4] = Strong light irradiation test (5500 Lux), content by HPLC and appearance; format: physicochemical; conditions: 25° C.
Procedure: as §1

[5] = Acceleration test (40° C./75% relative humidity), synthetic tocopherol vs co-crystal, total tocopherol content; format: physicochemical
Procedure: The content was determined by HPLC, the content was calculated by the external standard method, and the content is calculated based on the total tocopherol content. Both the initial tocopherol contents in the synthetic tocopherol itself and in the co-crystals were set at 100%.

[6] = 200 g lean beef, 69 mg co-crystal or same equivalent, stored at 2-4° C. for 8 days
Procedure: A. the lean beef was cut into pieces with a size of about 2×2 cm, 200 grams for each.
All samples were placed in a metal dish, numbered and stored at 2-4° C. for 8 days.

content ([1]; Month 0, initial content set at 100%): 100%
content ([1]; Month 1): 98.0%
content ([1]; Month 2): 99.1%
content [2]: 100.0%
content ([3]; Day 0, HPLC, initial content set at 100%): 100%
content ([3]; Day 5, % of initial content): 96.7%
content ([3]; Day 10, % of initial content): 89.4%
content ([3]; Day 20, % of initial content): 78.7%
content ([3]; Day 30, % of initial content): 77.3%
content ([4]; near UV 90 μW/cm^2, Day 0, initial content set at 100%): 100%
content ([4]; near UV 90 μW/cm^2, Day 5): 97.8%
content ([4]; near UV 90 μW/cm^2, Day 10): 91.8%
content ([4]; near UV 90 μW/cm^2, Day 20): 88.5%
Compound: Cc1c(C)c2c(c(C)c1O)CC[C@@](C)(CCC[C@H](C)CCC[C@H](C)CCCC(C)C)O2 [D-α-tocopherol]

content ([5]; Month 0, initial set at 100%): 100.0%
content ([5]; Month 1): 94.1%
Compound: Cc1c(C)c2c(c(C)c1O)CCC(C)(CCCC(C)CCCC(C)CCCC(C)C)O2 (racemic) [synthetic tocopherol, DL-α-tocopherol]

Compound: co-crystal of D-α-tocopherol and L-proline
flavor (rancidity) of beef [6]: except for the sample added with the co-crystal of D-α-tocopherol and L-proline, both of the other two samples have rancidity
meat color of beef [6]: can delay the darkening and greening of beef
